# Laboratory results from patent US20240009269A1 (priority 2020, published 2024).
# No end group written: not given here.
# How the values were obtained:
# [1] = test system: mouse brain (blood-brain barrier); settings: mouse, in vivo
# Description: Briefly, male C57BL/6J mice (n=43, 6-8 weeks old, 20-25 g, Jackson Laboratory) were anesthetized with 2% isoflurane. The common carotid artery (CCA) bifurcation was exposed and the occipital artery branching off from the external carotid artery (ECA) was coagulated. The ECA and the pterygopalatine artery (PPA) were temporarily ligated with 4-0 silk sutures. A temporary ligature using a 4-0 suture was placed on the carotid bifurcation and the proximal CCA was permanently ligated. A microcatheter (PE-8-100, SAI Infusion Technologies) was flushed with 2% heparin (1,000 U mL^−1, heparin sodium, Upjohn), inserted into the CCA via a small arteriotomy, and advanced into the internal carotid artery (ICA).
# For each animal, 150 μL of solution was infused at a rate of 150 μL minute^−1. […] The brains were harvested immediately after Evans Blue injection, sectioned in brain slicer matrix (Zivic Instruments) to produce 1 mm slabs.
# Animal anesthesia was maintained at 1.5-2% during the MRI scan. Mice were placed on a water-heated animal bed equipped with temperature and respiratory control. Respiration was monitored and maintained at 30-60 minutes^−1. All MRI experiments were performed on a Bruker 11.7T MRI scanner. Baseline T2 (TR/TE=2,500/30 ms), susceptibility-weighted imaging (SWI) (TR/TE=378/8 ms), T1 (TR/TE 350/6.7 ms)-weighted, dynamic gradient echo echo-planar imaging (GE-EPI, TR/TE 1250/9.7 ms, field of view (FOV)=14×14 mm, matrix=128×128, acquisition time=60 s and 24 repetitions) and dynamic T1 imaging (TR/TE 2000/3. 5ms, field of view=14×14 mm, acquisition time=8 seconds and 20 repetitions) images of the brain were acquired. The microcatheter was connected to a syringe mounted on an MRI compatible programmable syringe pump (PHD 2000, Harvard Apparatus Inc.). Gadolinium (Gd; Prohance) dissolved in saline at 1:50 was infused intra-arterially at the rate of 150 μL minute^−1 under dynamic GE-EPI MRI for visualization of perfusion territory. […] To quantify BBB status, T1 intensities in cortex, hippocampus and thalamus/hypothalamus were compared between ipsilateral and contralateral hemispheres. T1 hyperintensity was corrected for possible asymmetry using pre-contrast T1 images and normalized as the ratio of ipsilateral to contralateral intensity. Additionally, the area of BBBO (mm^2) was calculated by conversion of T1 images to binary using the Auto Threshold function (plugin v1.17; Maximum Entropy method) [Kapur, J. N., P. K. Sahoo, and A. K. C. Wong, Computer Vision, Graphics, and Image Processing, 1985, 29(3): p. 273-285] in ImageJ. T2-weighted and SWI images were acquired at the same timepoints for detection of brain damage and microhemorrhage. Subsequently, animals were sacrificed for further histological assessment.
# To determine the area and region of perfusion territory, we first calculated the contrast enhancement maps at the time where contrast enhancement was at its maximum. As Gd causes negative contrast under T2 imaging, we calculated the contrast enhancement as (SIpre-SIpost)/SIpre, where SI is the signal intensity of an MR image. Histogram was plotted for all pixels in the brain region in a contrast enhancement map and further fitted into two Gaussian distributions, assuming there were two dominant populations for non-contrast enhanced and contrast-enhanced pixels, respectively. The cutoff value to separate the two populations was then determined. The fraction of contrast enhanced areas was calculated by the ratio of the number of pixels, whose values are larger than the cutoff value, to the total number of pixels in the brain. A similar method was used to determine the BBBO territory.
# [2] = cited from earlier work
# blood-brain barrier = settings: cited from earlier work
# [3] = test system: tissue-engineered dhBMECs microvessels; assay: BBB opening in tissue-engineered BBB microvessels (500 kDa dextran leakage); type: cell-based, human
# Experimental: Three-dimensional blood-brain barrier microvessels were fabricated as previously reported (FIGS. 10A and 10B) [Linville, R. M., et al., Biomaterials, 2019. 190-191: p. 24-37] 150 μm diameter and 1 cm long channels were patterned in 7 mg mL^−1 type I collagen (Corning) using nitinol wire (Malin Co.) housed within polydimethylsiloxane (PDMS; Dow Corning). Channels were cross-linked by incubation in 20 mM genipin (Wako Biosciences) for 2 hours to increase cell adhesion. 2dhBMECs were suspended in BBB induction medium at a concentration of 5×10^6 cells mL^−1 and seeded into channels. Microvessels were perfused using BBB induction medium for 24 hours and then switched to BBB maintenance medium. During cell seeding and the first day of perfusion, 10 μM ROCK inhibitor Y27632 (ATCC) was supplemented to increase adhesion. An average shear stress of ˜2 dyn cm^−2 was maintained with a reservoir height difference (Δh) of 3 cm, corresponding to a volumetric flow rate of ˜250 μL h^−1 (FIG. 11D). This shear stress was estimated from the Poiseuille equation: τ=μQ)/2πd3 where μ is the media dynamic viscosity, Q is the volumetric flow rate, and d is the microvessel diameter.
# Live-cell imaging was conducted to study dynamic changes in in vitro BBB permeability and microvessel structure. Microvessels were imaged using a 10×objective equipped on an inverted microscope (Nikon Eclipse TiE) maintained at 37° C. and 5% CO2 (FIG. S2C). Epifluorescence illumination was provided by an X-Cite 120LEDBoost (Excelitas Technologies). Phase contrast and fluorescence images were acquired every two minutes with the focal plane set to the microvessel midplane. The entire image collected consists of ten adjacent imaging frames. […] A dextran solute panel comprised of 200 μM Cascade Blue-conjugated 3 kDa dextran (Cat. No. D7132. Thermo Fisher Scientific), 16 μM Alexa Fluor647-conjugated 10 kDa dextran (Cat. No. D22914, Thermo Fisher Scientific), and 1.2 μM fluorescein-conjugated 500 kDa dextran (Cat. No. D7136, Thermo Fisher Scientific) was prepared in BBB maintenance medium. Fluorophores were independently excited and the respective emissions were collected using: Nikon UV-2E/C for 3 kDa dextran (50 ms exposure), Chroma 41008 for 10 kDa dextran (20 ms exposure), and Nikon B-2E/C for 500 kDa dextran (50 ms exposure).
# Image processing was performed using ImageJ (NIH) to quantify BBB opening (FIGS. 11A-11D). First, images were cropped to a standard size of 6 mm×0.6 mm. To determine the spatial heterogeneity of BBB permeability, microvessels were sectioned into 10 regions of interest (ROIs), each a 0.6 mm×0.6 mm square (FIG. 11A). For each ROI, the integrated pixel density was plotted over time (FIG. 11A). The permeability (cm s^−1) was calculated using P=(r/2)(1/ΔI)(dI/dt), where r is the vessel radius, ΔI is the increase in fluorescence intensity upon perfusion of the fluorophore, and (dI/dt) is the rate of increase in fluorescence intensity as solute exits into the gel. […] To visually display permeability dynamics, heatmaps were generated from 90 instantaneous permeability values across the 10 ROIs (x-axis) and nine 10-minute periods (y-axis). […] 28(1): p. 41-51 in ImageJ (FIG. 11B). Under baseline conditions, thresholding results in the lumen designated as white (1) and extracellular matrix (ECM) as black (0). […] From binarized images, individual focal leaks were manually counted over time. Leaks emerging from the sides of the image frame were not counted. To quantify the duration of a BBB opening effect, we identified the time at which the last focal leak appeared and termed the focal leak reversibility time constant (τfocal leaks).
# [4] = 25, 50, and 100 μM·minute doses
compound,measurement,setting,value
OC[C@@H](O)[C@@H](O)[C@H](O)[C@H](O)CO [mannitol],extent of BBBO compared with 3 μM·minute melittin,[1],similar
same,solubility limit,[2],around 1.4 M
same,concentration above which BBBO is induced,blood-brain barrier,> 1.1 M
GIGAVLKVLTTGLPALISWIKRKRQQ-NH2 [melittin-CONH2],slope of focal leak reversibility versus dose,[3]; compared across four variants,highest slope
"RVGALKQTAIPVKSLIWGRQLIGLKT-NH2 [Mel-Scramble, reference compound]",BBBO,[3]; [4],did not induce BBBO
same,change in the permeability of 500 kDa dextran following perfusion,[3]; [4],no change
same,focal leaks during or 24 hours after perfusion,[3]; [4],no focal leaks were observed
